# Measured values reported in US20030104443A1, “AFAP sequences, polypeptides, antibodies and methods” (University of West Virginia, priority 2001, published 2003).
# Tests used:
# [1] = system: C3H10T1/2 cells; assay: Immunofluorescence of actin structures after PMA treatment; assay type: cell-based
# Procedure: For PKC activation with PMA, C3H10T1/2 cells were transfected with plasmids encoding AFAP-110. Twenty-four hours after transfections, the cells were serum starved overnight. PMA at 100 nM was used to activate PKC for 60 min. Cells were fixed and permeablized as previously described (Qian et al., 1998, supra). After washing, cells were labeled with BODIPY 650/665 phalloidin (Molecular Probes, Eugene, Oreg.) and 4C3 antibody for 20 min. Cells were washed again and then labeled with ALEXA 488 (Molecular Probes) for 25 min. Cells were washed and mounted on slides with Fluoromount (Fisher, Pittsburgh, Pa.). For serum induction experiments, C3H10T1/2 cells were serum starved overnight, and then serum-complete media was added. Cells on coverslips were washed and fixed at 15-min time points >2 h. Polyclonal antibody F1 and TRITC-labeled anti-rabbit secondary antibody were used to visualize endogenous AFAP-110, with washings as above. BODIPY 650/665 phalloidin was used to visualize actin. A Zeiss LSM 510 microscope (Thornwood, N.Y.) was used to gather images, which were recolored from grayscale. Scale bars were generated and inserted by LSM 510 software (Carl Zeiss, Thornwood, N.Y.).
# Immunofluorescence labeling and imaging was carried out as described. C3H10T1/2 cells expressing AFAP-110 were treated with either 100 nM PMA (A1-A3) or 100 nM 4α-PDD (A4-A6) for 15 min after overnight serum starvation. AFAP-110 is represented in red (A1 and A4), whereas actin is represented in green (A2 and A5). (A3 and A6) Overlap images of AFAP-110 and actin. Arrows indicate colocalization of AFAP-110 with dynamic actin structures: white arrows, filopodia; gray arrows, lamellipodia; black arrows, actin filaments in the top panel and disrupted actin filaments/rosettes in the bottom panel. […] Immunofluorescence labeling and imaging were carried out as described in Experimental Procedures. C3H10T1/2 cells coexpressing GFP-AFAP-110 (B1) and myristoylated, Flag-tagged PKC were labeled to show Flag-tagged PKC (B2) and actin (B3). Arrows indicate colocalization of AFAP-110 with dynamic actin structures: white arrows label filopodia and black arrows label lamellipodia. […] Immunofluorescence labeling and imaging were carried out as described. C3H10T1/2 cells were transfected with pCMV-GFP-AFAP-110 (C1-C6) and pCMV-GFP-AFAP^Δ180-226 (C7-C9). PMA at 100 nM was used to stimulate the cells for 1 h. C1, C4, and C7; green GFP fusion protein images; C2, C5, and C8; X actin images; C3, C6, and C9, overlap images of GFP fusion protein and actin images.
# [2] = system: AFAP-110 in C3H10T1/2 cells; assay: Phosphoamino acid analysis of AFAP-110 after PMA treatment; assay type: cell-based; settings: 100 nM PMA, 15 min; relative to 4α-PDD treatment; densitometry
# Procedure: (1, PKCα (0.5 μg); 2, PKCα (0.5 μg)+rAFAP-110 (10 μg); 3, rAFAP-110 (10 μg)). Data are representative of three experiments. […] C3H10T1/2 cells were serum-starved in phosphate-free media supplemented with radiolabeled ^32P-orthophosphate overnight and treated with 100 nM PMA, 100 nM 4α-PDD, or DMSO, the vehicle used. Cells were lysed after 15 min and AFAP-110 was immunoprecipitated using the antibody F1. Radiolabeled AFAP-110 was isolated by SDS-PAGE and subjected to phosphoamino acid analysis.
# To test whether AFAP-110 could be phosphorylated in cells in response to PKC activation in vivo, serum-starved C3H10T1/2 fibroblasts labeled with ^32P-orthophosphate were stimulated with 100 nM PMA for 15 min to activate PKC. Cos-1 cells were maintained and transfected as previously described (Guappone and Flynn, 1997, supra). C3H10T1/2 cells were cultured as previously described (Qian et al., 2000, supra). Transient transfections of C3H10T1/2 cells were carried out using SuperFect (QIAGEN, Santa Clarita, Calif.) as previously described (Qian et al., 2000, supra).
# Phosphoamino Acid Analysis C3H10T1/2 cells were grown to 60% confluence in 100-mm culture dishes, serum starved overnight, and then stimulated with 100 nM PMA or 100 nM 4α-PDD for 15 min. […] Relative intensity compared with background of radiation from spots was quantitated with ImageQuant software (Molecular Dynamics, Sunnyvale, Calif.).
# [3] = system: actin filaments; assay: Confocal microscopy of rhodamine-phalloidin-labeled actin filaments; assay type: biochemical; settings: 0.5 μM protein, 2 μM actin filaments; FIG. 13B
# Text: (§1) Binding constants were derived from the sedimentation of rAFAP-110 by actin. Accordingly, rAFAP-110 in the pellet and supernatant correspond to the bound and free rAFAP-110, respectively. The sum of densities of rAFAP-110 bands in the supernatant and pellet corresponds to the total mass of rAFAP-110 in the sample. The data representing the bound rAFAP-110 as a function of free rAFAP-110 were fit by nonlinear least squares to both the Langmuir (B=BMAX/(1+Kd/F)) and […] 2 μM F-actin filaments and different concentrations of rAFAP-110 in 5 mM MgCl2, 1 mM EGTA, 2 mM ATP, and 50 mM KCl at 20,800×g for 30 min at 4° C. After the centrifugation, both supernatant and pellets were analyzed by SDS-PAGE gel. Confocal microscopy assays were performed as described (Ishikawa et al., 1998, J. Biol. Chem., 273:26991-26997). Briefly, 2 μM F-actin containing 10% rhodamine-phalloidin-labeled F-actin were mixed with different concentrations of rAFAP-110 or other purified recombinant proteins in 5 mM MgCl2, 1 mM EGTA, 2 mM ATP, and 50 mM KCl at RT for 30 min. After the incubation, the reactions were applied between glass slides and coverslips and observed under confocal microscopy (Zeiss, Oberkochen, Germany). Samples for negative staining were adsorbed to grids coated with nitrocellulose and stabilized with carbon (Ernest F. Fullam, Latham, N.Y.). Unbound protein was removed by successive washes with buffer and water before staining with 1% uranylacetate (Cooper and Pollard, 1982, Methods Enzymol., 85(PtB), 182-210; Pollard and Cooper, 1982, Methods Enzymol., 85(PtB), 211-233).
# To further test AFAP-110's capability to cross-link actin filaments, we analyzed rhodamine-phalloidin-labeled actin filaments for cross-linking by confocal microscopy. In FIG. 9A, purified rAFAP-110 or rAFAP-110^Δcterm were incubated with rhodamine-phalloidin-labeled actin filaments. […] 1, actin filaments only; 2, rAFAP-110 with actin filaments; 3, rAFAP-110^Δcterm with actin filaments. FIG. 9B presents confocal microscopy images. Different concentrations of α-actinin (top two panels, low=0.0625 μM and high=1.25 μM) and rAFAP-110 (bottom two panels, low=0.106 μM and high=2.1 μM) were incubated with rhodamine-phalloidin-labeled actin filaments. […] Actin filaments labeled with rhodamine-phalloidin appeared uniformly fluorescent in the absence of an actin binding protein (FIG. 9A1). […] Electron microscopy was used to confirm rAFAP-110's ability to cross-link actin filaments.
# [4] = system: actin filaments; assay: Low-speed cosedimentation assay (20,800×g), actin filament cross-linking; assay type: biochemical; settings: 0.5 μM protein, 2 μM actin filaments; FIG. 13A
# Text: as §1
# Actin filaments are unable to efficiently pellet at 20,800×g unless cross-linked to form heavier particles (either isotropic networked or bundled actin filaments; Cooper and Pollard, 1982, supra; Pollard and Cooper, 1982, supra; Meyer et al., 1990, J. Cell. Biol. 110:2013-2024; Wachsstock et al., 1993, Biophys. J., 65: 205-214; Rybakova et al., 1996, J. Cell. Biol., 135:661-672). […] The purified recombinant proteins were incubated with actin filaments and then were centrifuged at 20,800×g. Both supernatants (S) and pellets (P) were applied to SDS-PAGE gel, followed by Coomassie staining. 1, rAFAP-110 with actin filaments; 2, rAFAP-110^Δcterm with actin filaments; 3, rAFAP-110 only; 4, rAFAP-110^Δcterm only; 5, actin filaments only. FIG. 8B is a graph of cross-linked actin filaments versus free rAFAP-110. rAFAP-110 at 0.05,0.11,0.21,0.43, 0.86, and 2.14 μM was incubated with the 2 μM concentration of G-actin polymerized into actin filaments. After the incubation, the reactions were centrifuged at 20,800×g. Both supernatants and pellets were applied to SDS-PAGE gel, followed by the Western blot analysis to detect rAFAP-110 and Coomassie blue staining to detect actin, respectively. The data of cross-linked actin filaments and free rAFA-110 were gathered by scanning densitometry of SDS-PAGE gel analysis.
# [5] = after treatment with 100 nM PMA
Molecule,time in which the changes occur ([1]; 100 nM PMA) [min],"actin structures upon PMA treatment ([1]; 100 nM PMA, serum-starved cells expressing AFAP-110)","time by which cells completely reverted to quiescent phenotype [1, 5] [h]","time by which changes largely revert [1, 5] [h]",increase in phosphoserine of AFAP-110 [2] [fold],increase in phosphothreonine of AFAP-110 [2] [fold],confocal fluorescence pattern of actin filaments [3],ability to coprecipitate actin filaments compared with rAFAP-110 [4]
CCCCCCCCCCCCCC(=O)O[C@@H]1[C@@H](C)[C@@]2(O)[C@@H](C=C(CO)C[C@]3(O)C(=O)C(C)=C[C@@H]23)[C@@H]2C(C)(C)[C@]12OC(C)=O [PMA],≤ 15,"Lamellipodia, filopodia, and rosettes appear",≤ 6,≤ 2,3.9,5.7,–,–
"PKCα phosphorylated rAFAP-110: rAFAP-110 phosphorylated with recombinant PKCα (protein, UniProt Q90738 1-729, looked up, PKCalpha phosphorylated, rAFAP-110 phosphorylated with recombinant PKCα) Actin filament-associated …: MEELIVELRLFLELLDHEYLTSTVREKKAVITNILLRIQSSKGFEIKEHVQKPEVANSLPAPPQMPLPEIPQQWLPPDNGPPPLPTSSLPEGYYEEAVPVSPGKAPEYITSNYDSDAMSSSYESYDEEEEDGKGKKMRHQWPSEEASMDLVKDAKICAFLLRKKRFGQWTKLLCVIKENKLLCYKSSKDQQPQMELLLNDCSITYIPKDSKKKKHELKISHQGADALVLAVQSKEQAEQWLKVIKDVCSNCTGTVDSDGPLSSSPVHKTELEKKLSSERPSSDGEGAVENGITTVCNGKEQVKRKKSSKTEAKGTVTKVTGKKITKIIGLGKKKPSTDEQTSSAEEDVPTCGYLNVLSNNRWRERWCRVKDNKLIFHKDRTDLKTHIVSIPLRGCEVIPGLDSKHPLTFRLLRNGQEVAVLEASSSEDMGRWIGMLLAETGSSTDPGALHYDYIDVEMTASVIQAAKQTFCFMNRRVISTNPYRGSTANGYACPSGMALHYDDVPCINGSFKGKKPPATANGITGKVRTLNSQPKKPESVSCVKRTASNAEQYKYGKNRVEAVAKRLQSKEEELLKRKEALRNRLAQLRKERKDLRAAIEVNAGRKTQVILEDKLKKLEEECKTKEAERVNLELELTEVKESLKKALAGGITLGLAIEPKSGTSSPQSPIFKHRTLENSPISSCDTSDTECSIPVNSAAALKRPPSSNNSPCRGHVLRKAKEWEMKNGT",–,–,–,–,–,–,large aggregates of fluorescence,increased the ability of rAFAP-110 to coprecipitate actin filaments
